17 compounds from patent publication US10889581B2, “Cyclopropyl fused thiazine derivatives as beta-secretase inhibitors and methods of use” (AMGEN INC., priority 2016, dated 2021) can be followed below.

Experiment [1] has as its target T1, BACE1 (Homo sapiens (Human), UniProt P56817). Briefly: In vitro BACE1 cell-based assay (Aβ40 in conditioned medium of cells stably expressing APP, HTRF). The procedure: In Vitro BACE1 Cell-Based Assay
The cell-based assay measures inhibition or reduction of Aβ40 in conditioned medium of test compound treated cells expressing amyloid precursor protein. Cells stably expressing Amyloid Precursor Protein (APP) were plated at a density of 45K cells/well in 384 well plates (Corning/BioCoat 354663). The test compounds were then added to cells in 22-point dose response concentrations with the starting concentration being 62.5 μM. The compounds were diluted from stock solutions in DMSO and the final DMSO concentration of the test compounds on cells was 0.625%. The cells were cultivated overnight at 37° C. and 5% CO2 in DMEM supplemented with 10% FBS. After 24 h of incubation with the test compounds, the conditioned media was collected and the Aβ40 levels were determined using HTRF (Homogeneous Time Resolved Fluorescence). The IC50 of the compound was calculated from the percent of control or percent inhibition of Aβ40 as a function of the concentration of the test compound.
The HTRF to detect Aβ40 was performed in 384 well plates (Costar 3658). The antibody pair that were used to detect Aβ40 from cell supernatants were ConfAb40 antibody (Amgen in-house) and biotinylated 6E10 (BIOLEGEND). As an alternative to ConfAb40, a commercially available antibody, Anti-beta Amyloid 1-40 antibody [BDI350] from Abcam, Cambridge, Mass. 02139-1517 (Product code: ab20068), may be used in this assay. The concentrations were 0.35 μg/mL of ConfAb40 antibody and 1.33 μg/mL of 6E10-biotinylated antibody, as well as 4.5 μg/mL of Streptavidin Allophycocyanin Conjugate (ThermoFisher Scientific) in HTRF Buffer ([…], 1% BSA, 0.5% Tween 20).
The conditioned media was incubated with above antibodies and Streptavidin Allophycocyanin Conjugate for 30-60 minutes at 23° C. The final readout was performed on Envision from PerkinElmer.
Target sequence in this assay (P56817 46-501, species assumed): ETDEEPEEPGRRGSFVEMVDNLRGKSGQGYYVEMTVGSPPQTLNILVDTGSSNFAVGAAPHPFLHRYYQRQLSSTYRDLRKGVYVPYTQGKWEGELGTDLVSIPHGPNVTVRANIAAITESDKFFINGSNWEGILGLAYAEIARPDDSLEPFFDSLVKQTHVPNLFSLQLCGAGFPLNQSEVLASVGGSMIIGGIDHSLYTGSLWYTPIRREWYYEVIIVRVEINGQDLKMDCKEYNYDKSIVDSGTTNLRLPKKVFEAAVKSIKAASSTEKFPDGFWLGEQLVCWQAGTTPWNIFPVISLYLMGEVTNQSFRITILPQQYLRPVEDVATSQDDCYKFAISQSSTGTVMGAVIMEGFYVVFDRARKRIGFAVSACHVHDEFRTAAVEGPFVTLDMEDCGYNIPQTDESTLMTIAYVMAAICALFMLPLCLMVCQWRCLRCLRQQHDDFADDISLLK

The target of experiment [2] is human recombinant BACE2 (Homo sapiens (Human), UniProt Q9Y5Z0). Briefly: In vitro enzymatic BACE2 FRET assay. The format is biochemical. The conditions noted are these: pH 4.5, read-out: BACE2 Enzyme IC50.
Chain of human recombinant BACE2 (Q9Y5Z0 63-518): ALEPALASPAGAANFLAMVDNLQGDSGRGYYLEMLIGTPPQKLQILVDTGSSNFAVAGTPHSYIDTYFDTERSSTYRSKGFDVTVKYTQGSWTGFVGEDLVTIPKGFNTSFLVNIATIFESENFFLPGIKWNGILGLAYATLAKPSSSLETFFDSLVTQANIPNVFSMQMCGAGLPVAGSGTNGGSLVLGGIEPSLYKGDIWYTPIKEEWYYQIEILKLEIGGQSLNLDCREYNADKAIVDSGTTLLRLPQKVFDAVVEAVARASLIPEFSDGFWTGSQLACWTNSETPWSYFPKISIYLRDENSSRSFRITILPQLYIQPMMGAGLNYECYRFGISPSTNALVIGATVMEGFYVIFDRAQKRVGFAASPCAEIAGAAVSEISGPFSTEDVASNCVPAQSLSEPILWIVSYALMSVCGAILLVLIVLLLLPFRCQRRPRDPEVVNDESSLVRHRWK
In experiment [3] the target is T1, BACE1. Briefly: In vitro enzymatic BACE1 FRET assay. As to conditions: pH 4.5, read-out: BACE1 Enzyme IC50. The format is biochemical.
Target sequence in this assay (P56817 46-501): as the sequence (P56817 46-501, species assumed) above
The target in experiment [4] is Recombinant CatD (Homo sapiens (Human), UniProt P07339). Briefly: In vitro enzymatic Cathepsin D (CatD) FRET assay. In kind it is biochemical. As to conditions: pH 3.5, read-out: Cat D Enzyme IC50.
Chain of Recombinant CatD (P07339 65-412): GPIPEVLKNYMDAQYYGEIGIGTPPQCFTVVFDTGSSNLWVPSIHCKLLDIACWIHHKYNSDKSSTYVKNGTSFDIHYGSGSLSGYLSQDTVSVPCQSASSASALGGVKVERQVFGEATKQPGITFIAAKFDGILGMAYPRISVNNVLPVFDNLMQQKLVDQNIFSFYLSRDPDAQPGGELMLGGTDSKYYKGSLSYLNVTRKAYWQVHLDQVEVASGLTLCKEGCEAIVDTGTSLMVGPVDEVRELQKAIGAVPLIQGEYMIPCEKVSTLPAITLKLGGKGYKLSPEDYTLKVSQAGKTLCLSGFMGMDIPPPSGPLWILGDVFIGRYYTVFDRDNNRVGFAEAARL
The mark [5] stands for this setting: Aβ40, 24 h incubation, read-out: BACE1 Cell IC50.

`N#Cc1ccc(C#Cc2ccc(F)c([C@@]3(CF)N=C(N)S[C@@]4(CO)C[C@H]43)c2)nc1` [Example 100, 6-((3-((1S,5S,6S)-3-amino-5-(fluoromethyl)-1-(hydroxymethyl)-2-thia-4-azabicyclo[4.1.0]hept-3-en-5-yl)-4-fluorophenyl)ethynyl)nicotinonitrile]: the IC50 (as a rule, the point on the concentration scale where inhibition reaches its midpoint) amounted to 0.129 µM in experiment [1] (setting [5]), 4.55 µM in experiment [2], 0.08 µM in experiment [3] and 4870 µM in experiment [4].
Regarding `N#Cc1ccc(C#Cc2ccc(F)c([C@@]3(CF)N=C(N)S[C@@]4(CF)C[C@H]43)c2)nc1` [Example 101, 6-((3-((1S,5S,6S)-3-amino-1,5-bis(fluoromethyl)-2-thia-4-azabicyclo[4.1.0]hept-3-en-5-yl)-4-fluorophenyl)ethynyl)nicotinonitrile], the IC50 was 0.271 µM in experiment [1] (setting [5]), 6.04 µM in experiment [2], 0.104 µM in experiment [3] and 2860 µM in experiment [4].
The like results for `NC1=N[C@](CF)(c2cc(C#Cc3ccc(Cl)cn3)ccc2F)[C@@H]2C[C@]2(CF)S1` [Example 102, (1S,5S,6S)-5-(5-((5-chloropyridin-2-yl)ethynyl)-2-fluorophenyl)-1,5-bis(fluoromethyl)-2-thia-4-azabicyclo[4.1.0]hept-3-en-3-amine] were, in that order, 0.685 µM, 0.445 µM, 0.182 µM and 673 µM.
For `N#Cc1cnc(C#Cc2ccc(F)c([C@@]3(CF)N=C(N)S[C@@]4(CF)C[C@H]43)c2)cn1` [Example 103, 5-((3-((1S,5S,6S)-3-amino-1,5-bis(fluoromethyl)-2-thia-4-azabicyclo[4.1.0]hept-3-en-5-yl)-4-fluorophenyl)ethynyl)pyrazine-2-carbonitrile], the IC50 in experiment [1] (setting [5]) came out at 3.91 µM; in experiment [2], 1.59 µM; in experiment [3] it was 0.086 µM; in experiment [4] it was 229 µM.
Turning to `Cc1cc(C#N)cnc1C#Cc1ccc(F)c([C@@]2(CF)N=C(N)S[C@@]3(CF)C[C@H]32)c1` [Example 104, 6-((3-((1S,5S,6S)-3-amino-1,5-bis(fluoromethyl)-2-thia-4-azabicyclo[4.1.0]hept-3-en-5-yl)-4-fluorophenyl)ethynyl)-5-methylnicotinonitrile], the IC50 stood at 0.231 µM in experiment [1] (setting [5]), 2.28 µM in experiment [2], 0.038 µM in experiment [3] and 1300 µM in experiment [4].
In the case of `CC#CCOc1ccc(C#Cc2ccc(F)c([C@@]3(CF)N=C(N)S[C@@]4(CF)C[C@H]43)c2)nc1` [Example 105, (1S,5S,6S)-5-(5-((5-(but-2-yn-1-yloxy)pyridin-2-yl)ethynyl)-2-fluorophenyl)-1,5-bis(fluoromethyl)-2-thia-4-azabicyclo[4.1.0]hept-3-en-3-amine], the IC50 was 0.746 µM in experiment [1] (setting [5]), 10.3 µM in experiment [2], 0.096 µM in experiment [3] and 500 µM in experiment [4].
`N#CC[C@]12C[C@H]1[C@@](CF)(c1cc(C#Cc3ccc(C#N)cn3)ccc1F)N=C(N)S2` [Example 106, 6-((3-((1R,5S,6S)-3-amino-1-(cyanomethyl)-5-(fluoromethyl)-2-thia-4-azabicyclo[4.1.0]hept-3-en-5-yl)-4-fluorophenyl)ethynyl)nicotinonitrile]: the IC50 in experiment [1] (setting [5]) was found to be 0.623 µM; in experiment [2], 4.73 µM; in experiment [3], 0.084 µM; in experiment [4], 614 µM.
In the case of `N#C/C=C/[C@]12C[C@H]1[C@@](CF)(c1cc(C#Cc3ccc(C#N)cn3)ccc1F)N=C(N)S2` [Example 107, 6-((3-((1R,5S,6S)-3-amino-1-((E)-2-cyanovinyl)-5-(fluoromethyl)-2-thia-4-azabicyclo[4.1.0]hept-3-en-5-yl)-4-fluorophenyl)ethynyl)nicotinonitrile], the IC50 in experiment [1] (setting [5]) was 0.372 µM; in experiment [2] it was 2.55 µM; in experiment [3], 0.047 µM; in experiment [4] it was 239 µM.
Take `NC1=N[C@](CF)(c2cc(C#Cc3ccc(OCc4ncco4)cn3)ccc2F)[C@@H]2C[C@]2(CF)S1` [Example 108, (1S,5S,6S)-5-(2-fluoro-5-((5-(oxazol-2-ylmethoxy)pyridin-2-yl)ethynyl)phenyl)-1,5-bis(fluoromethyl)-2-thia-4-azabicyclo[4.1.0]hept-3-en-3-amine]: the IC50 came out at 2.02 µM in experiment [1] (setting [5]), 14.1 µM in experiment [2], 0.735 µM in experiment [3] and 784 µM in experiment [4].
Consider `N#Cc1cnc(C#Cc2ccc(F)c([C@@]3(CF)N=C(N)S[C@@]4(CF)C[C@H]43)c2)s1` [Example 109, 2-((3-((1S,5S,6S)-3-amino-1,5-bis(fluoromethyl)-2-thia-4-azabicyclo[4.1.0]hept-3-en-5-yl)-4-fluorophenyl)ethynyl)thiazole-5-carbonitrile], for which the half-maximal inhibitory concentration (IC50) was 1.11 µM in experiment [1] (setting [5]), 0.092 µM in experiment [2], 0.057 µM in experiment [3] and 705 µM in experiment [4].
With `C[C@]1(c2cc(C#Cc3ccc(C#N)cn3)ccc2F)N=C(N)S[C@]2(CO)[C@H]1C2(F)F` [Example 110, 6-((3-((1S,5S,6R)-3-amino-7,7-difluoro-1-(hydroxymethyl)-5-methyl-2-thia-4-azabicyclo[4.1.0]hept-3-en-5-yl)-4-fluorophenyl)ethynyl)nicotinonitrile], the IC50 in experiment [1] (setting [5]) stood at 0.355 µM; in experiment [2], 2.08 µM; in experiment [3], 0.047 µM; in experiment [4], 1160 µM.
On to `N#Cc1ccc(C#Cc2ccc(F)c([C@@]3(CF)N=C(N)S[C@@]4(/C=C/C(=O)N5CCOCC5)C[C@H]43)c2)nc1` [Example 111, 6-((3-((1R,5S,6S)-3-amino-5-(fluoromethyl)-1-((E)-3-morpholino-3-oxoprop-1-en-1-yl)-2-thia-4-azabicyclo[4.1.0]hept-3-en-5-yl)-4-fluorophenyl)ethynyl)nicotinonitrile], for which the IC50 came out at 0.072 µM in experiment [1] (setting [5]), 0.405 µM in experiment [2], 0.019 µM in experiment [3] and 300 µM in experiment [4].
For `CN(C)C(=O)/C=C/[C@]12C[C@H]1[C@@](CF)(c1cc(C#Cc3ccc(C#N)cn3)ccc1F)N=C(N)S2` [Example 112, (E)-3-((1R,5S,6S)-3-amino-5-(5-((5-cyanopyridin-2-yl)ethynyl)-2-fluorophenyl)-5-(fluoromethyl)-2-thia-4-azabicyclo[4.1.0]hept-3-en-1-yl)-N,N-dimethylacrylamide] the same measures were 0.139 µM, 1.59 µM, 0.025 µM and 176 µM.
Take `N#Cc1ccc(C#Cc2ccc(F)c([C@@]3(CF)N=C(N)S[C@@]4(CC(N)=O)C[C@H]43)c2)nc1` [Example 113, 2-((1R,5S,6S)-3-amino-5-(5-((5-cyanopyridin-2-yl)ethynyl)-2-fluorophenyl)-5-(fluoromethyl)-2-thia-4-azabicyclo[4.1.0]hept-3-en-1-yl)acetamide]: the IC50 came out at 0.153 µM in experiment [1] (setting [5]), 3.76 µM in experiment [2], 0.116 µM in experiment [3] and 1420 µM in experiment [4].
Consider `C[C@]1(c2cc(C#Cc3ccc(C#N)cn3)cnc2F)N=C(N)S[C@@]2(CF)C[C@H]21` [Example 114, 6-((5-((1S,5S,6S)-3-amino-1-(fluoromethyl)-5-methyl-2-thia-4-azabicyclo[4.1.0]hept-3-en-5-yl)-6-fluoropyridin-3-yl)ethynyl)nicotinonitrile], for which the IC50 in experiment [1] (setting [5]) is 0.677 µM; in experiment [2] it was 3.37 µM; in experiment [3], 0.637 µM; in experiment [4] it was above 400 µM.
Turning to `Cc1cn(C[C@]23C[C@H]2[C@@](CF)(c2cc(C#Cc4ccc(C#N)cn4)ccc2F)N=C(N)S3)nn1` [Example 115, 6-((3-((1S,5S,6S)-3-amino-5-(fluoromethyl)-1-((4-methyl-1H-1,2,3-triazol-1-yl)methyl)-2-thia-4-azabicyclo[4.1.0]hept-3-en-5-yl)-4-fluorophenyl)ethynyl)nicotinonitrile], the IC50 is 0.142 µM in experiment [1] (setting [5]), 2.18 µM in experiment [2], 0.109 µM in experiment [3] and 1030 µM in experiment [4].
In turn, `COC[C@]12CC1[C@@](C)(c1cc(C#Cc3ncc(Cl)cc3C)ccc1F)N=C(N)S2` (stereo partly drawn) [Example 134, (1S,5S)-5-(5-((5-chloro-3-methylpyridin-2-yl)ethynyl)-2-fluorophenyl)-1-(methoxymethyl)-5-methyl-2-thia-4-azabicyclo[4.1.0]hept-3-en-3-amine] registered an IC50 in experiment [1] of 0.951 µM.
